Experimental data taken from PubChem BioAssay (NCI).
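Each compound was tested at five concentrations against cells in 96-well plates for 48 hours. GI50: concentration for 50% inhibition of growth. At the TGI there is no net growth.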

Experiments:
Experiment in all cases: NCI-60 cell line screen, 48 h
MCF7 breast = system: MCF7 breast
NCI-H226 lung = system: NCI-H226 lung
A549 NSCLC = system: A549 NSCLC
SR leukemia = system: SR leukemia
M14 melanoma = system: M14 melanoma
OVCAR-8 ovarian = system: OVCAR-8 ovarian
MOLT-4 leukemia = system: MOLT-4 leukemia
HS 578T breast = system: HS 578T breast
HOP-92 NSCLC = system: HOP-92 NSCLC
MALME-3M melanoma = system: MALME-3M melanoma
T-47D breast = system: T-47D breast
SF-295 CNS = system: SF-295 CNS
RXF 393 renal = system: RXF 393 renal
PC-3 prostate = system: PC-3 prostate
LOX IMVI melanoma = system: LOX IMVI melanoma
SW-620 colon = system: SW-620 colon
EKVX NSCLC = system: EKVX NSCLC
CCRF-CEM leukemia = system: CCRF-CEM leukemia
HCC-2998 colon = system: HCC-2998 colon
CAKI-1 renal = system: CAKI-1 renal
A498 renal = system: A498 renal
UO-31 renal = system: UO-31 renal
NCI/ADR-RES ovarian = system: NCI/ADR-RES ovarian
OVCAR-5 ovarian = system: OVCAR-5 ovarian
NCI-H23 lung = system: NCI-H23 lung
HL-60(TB) leukemia = system: HL-60(TB) leukemia
SF-268 CNS = system: SF-268 CNS
HOP-62 NSCLC = system: HOP-62 NSCLC
RPMI-8226 leukemia = system: RPMI-8226 leukemia
SK-OV-3 ovarian = system: SK-OV-3 ovarian
SNB-19 CNS = system: SNB-19 CNS
ACHN renal = system: ACHN renal
OVCAR-3 ovarian = system: OVCAR-3 ovarian
NCI-H522 lung = system: NCI-H522 lung
SNB-75 CNS = system: SNB-75 CNS
COLO 205 colon = system: COLO 205 colon
KM12 colon = system: KM12 colon
786-0 renal = system: 786-0 renal
HCT-15 colon = system: HCT-15 colon
SF-539 CNS = system: SF-539 CNS
U251 CNS = system: U251 CNS
IGROV1 ovarian = system: IGROV1 ovarian
MDA-MB-468 breast = system: MDA-MB-468 breast
UACC-257 melanoma = system: UACC-257 melanoma
SK-MEL-2 melanoma = system: SK-MEL-2 melanoma
K-562 leukemia = system: K-562 leukemia
NCI-H460 lung = system: NCI-H460 lung
HCT-116 colon = system: HCT-116 colon
SN12C renal = system: SN12C renal
UACC-62 melanoma = system: UACC-62 melanoma
MDA-MB-435 = system: MDA-MB-435
BT-549 breast = system: BT-549 breast
SK-MEL-28 melanoma = system: SK-MEL-28 melanoma
HT29 colon = system: HT29 colon
OVCAR-4 ovarian = system: OVCAR-4 ovarian
MDA-MB-231 breast = system: MDA-MB-231 breast
TK-10 renal = system: TK-10 renal
DU-145 prostate = system: DU-145 prostate
SK-MEL-5 melanoma = system: SK-MEL-5 melanoma

SMILES: O=c1ccc(Cn2c(C(F)(F)F)cc3c(Cl)ncnc32)c[nH]1
- GI50 (MCF7 breast): 21.1 µM
- TGI (MCF7 breast): 67.9 µM
- GI50 (NCI-H226 lung): 31.7 µM
- TGI (NCI-H226 lung): > 100 µM
- GI50 (A549 NSCLC): 64.8 µM
- TGI (A549 NSCLC): > 100 µM
- GI50 (SR leukemia): 2730 nM
- TGI (SR leukemia): 11.8 µM
- GI50 (M14 melanoma): 4.08 µM
- TGI (M14 melanoma): 22.1 µM
- GI50 (OVCAR-8 ovarian): 3.51 µM
- TGI (OVCAR-8 ovarian): 17.3 µM
- GI50 (MOLT-4 leukemia): 3.21 µM
- TGI (MOLT-4 leukemia): 17.2 µM
- GI50 (HS 578T breast): 8.76 µM
- TGI (HS 578T breast): 50.4 µM
- GI50 (HOP-92 NSCLC): 23 µM
- TGI (HOP-92 NSCLC): > 100 µM
- GI50 (MALME-3M melanoma): 15.9 µM
- TGI (MALME-3M melanoma): 35 µM
- GI50 (T-47D breast): 30.3 µM
- TGI (T-47D breast): > 100 µM
- GI50 (SF-295 CNS): 28.2 µM
- TGI (SF-295 CNS): > 100 µM
- GI50 (RXF 393 renal): 11.2 µM
- TGI (RXF 393 renal): 32.1 µM
- GI50 (PC-3 prostate): 17.1 µM
- TGI (PC-3 prostate): 55.8 µM
- GI50 (LOX IMVI melanoma): 1650 nM
- TGI (LOX IMVI melanoma): 3.11 µM
- GI50 (SW-620 colon): 5.55 µM
- TGI (SW-620 colon): 26.3 µM
- GI50 (EKVX NSCLC): 14.2 µM
- TGI (EKVX NSCLC): 36 µM
- GI50 (CCRF-CEM leukemia): 4.32 µM
- TGI (CCRF-CEM leukemia): > 100 µM
- GI50 (HCC-2998 colon): 2900 nM
- TGI (HCC-2998 colon): 10.1 µM
- GI50 (CAKI-1 renal): 23.5 µM
- TGI (CAKI-1 renal): 99.4 µM
- GI50 (A498 renal): > 100 µM
- TGI (A498 renal): > 100 µM
- GI50 (UO-31 renal): 5.05 µM
- TGI (UO-31 renal): 19.2 µM
- GI50 (NCI/ADR-RES ovarian): 14.2 µM
- TGI (NCI/ADR-RES ovarian): 40.3 µM
- GI50 (OVCAR-5 ovarian): 61.7 µM
- TGI (OVCAR-5 ovarian): > 100 µM
- GI50 (NCI-H23 lung): 3.97 µM
- TGI (NCI-H23 lung): 18.4 µM
- GI50 (HL-60(TB) leukemia): 2100 nM
- TGI (HL-60(TB) leukemia): 5.97 µM
- GI50 (SF-268 CNS): 10.6 µM
- TGI (SF-268 CNS): 28.9 µM
- GI50 (HOP-62 NSCLC): 46.7 µM
- TGI (HOP-62 NSCLC): > 100 µM
- GI50 (RPMI-8226 leukemia): 23 µM
- TGI (RPMI-8226 leukemia): > 100 µM
- GI50 (SK-OV-3 ovarian): 44.3 µM
- TGI (SK-OV-3 ovarian): > 100 µM
- GI50 (SNB-19 CNS): 20.7 µM
- TGI (SNB-19 CNS): 59.4 µM
- GI50 (ACHN renal): 22.2 µM
- TGI (ACHN renal): > 100 µM
- GI50 (OVCAR-3 ovarian): 14.9 µM
- TGI (OVCAR-3 ovarian): 32.8 µM
- GI50 (NCI-H522 lung): 2050 nM
- TGI (NCI-H522 lung): 4.85 µM
- GI50 (SNB-75 CNS): 10.7 µM
- TGI (SNB-75 CNS): 23.2 µM
- GI50 (COLO 205 colon): 86.6 µM
- TGI (COLO 205 colon): > 100 µM
- GI50 (KM12 colon): 17.9 µM
- TGI (KM12 colon): 40.3 µM
- GI50 (786-0 renal): 43.5 µM
- TGI (786-0 renal): > 100 µM
- GI50 (HCT-15 colon): 2930 nM
- TGI (HCT-15 colon): 14.9 µM
- GI50 (SF-539 CNS): 17.3 µM
- TGI (SF-539 CNS): 40.9 µM
- GI50 (U251 CNS): 22.5 µM
- TGI (U251 CNS): 69.2 µM
- GI50 (IGROV1 ovarian): 2290 nM
- TGI (IGROV1 ovarian): 6.09 µM
- GI50 (MDA-MB-468 breast): 2100 nM
- TGI (MDA-MB-468 breast): 5.73 µM
- GI50 (UACC-257 melanoma): 3.18 µM
- TGI (UACC-257 melanoma): 12.9 µM
- GI50 (SK-MEL-2 melanoma): 16.9 µM
- TGI (SK-MEL-2 melanoma): 32.6 µM
- GI50 (K-562 leukemia): 2830 nM
- TGI (K-562 leukemia): > 100 µM
- GI50 (NCI-H460 lung): 12 µM
- TGI (NCI-H460 lung): 36.2 µM
- GI50 (HCT-116 colon): 3.51 µM
- TGI (HCT-116 colon): 29.2 µM
- GI50 (SN12C renal): 6.42 µM
- TGI (SN12C renal): 23.4 µM
- GI50 (UACC-62 melanoma): 5.55 µM
- TGI (UACC-62 melanoma): 19.7 µM
- GI50 (MDA-MB-435): 4.69 µM
- TGI (MDA-MB-435): 20.5 µM
- GI50 (BT-549 breast): 14 µM
- TGI (BT-549 breast): 28.8 µM
- GI50 (SK-MEL-28 melanoma): 3.9 µM
- TGI (SK-MEL-28 melanoma): 18.7 µM
- GI50 (HT29 colon): 29 µM
- TGI (HT29 colon): > 100 µM
- GI50 (OVCAR-4 ovarian): 17.9 µM
- TGI (OVCAR-4 ovarian): 44.6 µM
- GI50 (MDA-MB-231 breast): 4.65 µM
- TGI (MDA-MB-231 breast): 18.2 µM
- GI50 (TK-10 renal): > 100 µM
- TGI (TK-10 renal): > 100 µM
- GI50 (DU-145 prostate): 38.7 µM
- TGI (DU-145 prostate): > 100 µM
- GI50 (SK-MEL-5 melanoma): 4.06 µM
- TGI (SK-MEL-5 melanoma): 15 µM
